Reference: ChEMBL document CHEMBL5550178, “Synthesis and anticancer properties of novel dolastatin 10 analogs featuring five-membered heterocyclic rings with a linkable group at the C-terminus” (Bioorg Med Chem, 2024)
Active and inactive are the calls of the source. The calls are words filed in the database; no cut-off is given here.

Legend:
PANC-1 = assay: Cytotoxicity against human PANC-1 cells assessed as inhibition of cell growth measured after 8 days by XTT cell viability assay; format: functional, cell-based; conditions: PANC-1, 192 h
MDA-MB-231 = assay: Cytotoxicity against human MDA-MB-231 cells assessed as inhibition of cell growth measured after 8 days by XTT cell viability assay; format: functional, cell-based; conditions: MDA-MB-231, 192 h
NCI-H1299 = assay: Cytotoxicity against human NCI-H1299 cells assessed as inhibition of cell growth measured after 8 days by XTT cell viability assay; format: functional, cell-based; conditions: NCI-H1299, 192 h
PC-3 [1] = assay: Cytotoxicity against human PC-3 cells assessed as inhibition of cell growth measured after 8 days by XTT cell viability assay; format: functional, cell-based; conditions: PC-3, 192 h
[2] = Cytotoxicity against human Fibroblast cells assessed as inhibition of cell growth measured after 8 days by XTT cell viability assay; format: toxicity, cell-based
PC-3 [3] = assay: Induction of cell cycle arrest in human PC-3 cells assessed as accumulation of cells at G1/G0 phase at 1 nM measured after 4 days by PI staining based flow cytometry analysis (reference value: 78.3%); format: functional; conditions: time 4 day
PC-3 [4] = assay: Induction of cell cycle arrest in human PC-3 cells assessed as accumulation of cells at G1/G0 phase at 50 nM measured after 4 days by PI staining based flow cytometry analysis (reference value: 78.3%); format: functional; conditions: time 4 day
PC-3 [5] = assay: Induction of cell cycle arrest in human PC-3 cells assessed as accumulation of cells at G1/G0 phase at 1000 nM measured after 4 days by PI staining based flow cytometry analysis (reference value: 78.3%); format: functional; conditions: time 4 day
PC-3 [6] = assay: Induction of cell cycle arrest in human PC-3 cells assessed as accumulation of cells at S phase at 1 nM measured after 4 days by PI staining based flow cytometry analysis (reference value: 9.87%); format: functional; conditions: time 4 day
PC-3 [7] = assay: Induction of cell cycle arrest in human PC-3 cells assessed as accumulation of cells at S phase at 50 nM measured after 4 days by PI staining based flow cytometry analysis (reference value: 9.87%); format: functional; conditions: time 4 day
PC-3 [8] = assay: Induction of cell cycle arrest in human PC-3 cells assessed as accumulation of cells at S phase at 1000 nM measured after 4 days by PI staining based flow cytometry analysis (reference value: 9.87%); format: functional; conditions: time 4 day
PC-3 [9] = assay: Induction of cell cycle arrest in human PC-3 cells assessed as accumulation of cells at G2/M phase at 1 nM measured after 4 days by PI staining based flow cytometry analysis (reference value: 11.9%); format: functional; conditions: time 4 day
PC-3 [10] = assay: Induction of cell cycle arrest in human PC-3 cells assessed as accumulation of cells at G2/M phase at 50 nM measured after 4 days by PI staining based flow cytometry analysis (reference value: 11.9%); format: functional; conditions: time 4 day
PC-3 [11] = assay: Induction of cell cycle arrest in human PC-3 cells assessed as accumulation of cells at G2/M phase at 1000 nM measured after 4 days by PI staining based flow cytometry analysis (reference value: 11.9%); format: functional; conditions: time 4 day
PC-3 [12] = assay: Induction of cell cycle arrest in human PC-3 cells assessed as accumulation of cells at G1/G0 phase at 1 nM measured after 6 days by PI staining based flow cytometry analysis (reference value: 70.7%); format: functional; conditions: time 6 day
PC-3 [13] = assay: Induction of cell cycle arrest in human PC-3 cells assessed as accumulation of cells at G1/G0 phase at 50 nM measured after 6 days by PI staining based flow cytometry analysis (reference value: 70.7%); format: functional; conditions: time 6 day
PC-3 [14] = assay: Induction of cell cycle arrest in human PC-3 cells assessed as accumulation of cells at G1/G0 phase at 1000 nM measured after 6 days by PI staining based flow cytometry analysis (reference value: 70.7%); format: functional; conditions: time 6 day
PC-3 [15] = assay: Induction of cell cycle arrest in human PC-3 cells assessed as accumulation of cells at S phase at 1 nM measured after 6 days by PI staining based flow cytometry analysis (reference value: 14.4%); format: functional; conditions: time 6 day
PC-3 [16] = assay: Induction of cell cycle arrest in human PC-3 cells assessed as accumulation of cells at S phase at 50 nM measured after 6 days by PI staining based flow cytometry analysis (reference value: 14.4%); format: functional; conditions: time 6 day
PC-3 [17] = assay: Induction of cell cycle arrest in human PC-3 cells assessed as accumulation of cells at S phase at 1000 nM measured after 6 days by PI staining based flow cytometry analysis (reference value: 14.4%); format: functional; conditions: time 6 day
PC-3 [18] = assay: Induction of cell cycle arrest in human PC-3 cells assessed as accumulation of cells at G2/M phase at 1 nM measured after 6 days by PI staining based flow cytometry analysis (reference value: 15.8%); format: functional; conditions: time 6 day
PC-3 [19] = assay: Induction of cell cycle arrest in human PC-3 cells assessed as accumulation of cells at G2/M phase at 50 nM measured after 6 days by PI staining based flow cytometry analysis (reference value: 15.8%); format: functional; conditions: time 6 day
PC-3 [20] = assay: Induction of cell cycle arrest in human PC-3 cells assessed as accumulation of cells at G2/M phase at 1000 nM measured after 6 days by PI staining based flow cytometry analysis (reference value: 15.8%); format: functional; conditions: time 6 day
PC-3 [21] = assay: Induction of cell cycle arrest in human PC-3 cells assessed as accumulation of cells at G1/G0 phase at 1 nM measured after 8 days by PI staining based flow cytometry analysis (reference value: 64.6%); format: functional; conditions: time 8 day
PC-3 [22] = assay: Induction of cell cycle arrest in human PC-3 cells assessed as accumulation of cells at G1/G0 phase at 50 nM measured after 8 days by PI staining based flow cytometry analysis (reference value: 64.6%); format: functional; conditions: time 8 day
PC-3 [23] = assay: Induction of cell cycle arrest in human PC-3 cells assessed as accumulation of cells at G1/G0 phase at 1000 nM measured after 8 days by PI staining based flow cytometry analysis (reference value: 64.6%); format: functional; conditions: time 8 day
PC-3 [24] = assay: Induction of cell cycle arrest in human PC-3 cells assessed as accumulation of cells at S phase at 1 nM measured after 8 days by PI staining based flow cytometry analysis (reference value: 23.9%); format: functional; conditions: time 8 day
PC-3 [25] = assay: Induction of cell cycle arrest in human PC-3 cells assessed as accumulation of cells at S phase at 50 nM measured after 8 days by PI staining based flow cytometry analysis (reference value: 23.9%); format: functional; conditions: time 8 day
PC-3 [26] = assay: Induction of cell cycle arrest in human PC-3 cells assessed as accumulation of cells at S phase at 1000 nM measured after 8 days by PI staining based flow cytometry analysis (reference value: 23.9%); format: functional; conditions: time 8 day
PC-3 [27] = assay: Induction of cell cycle arrest in human PC-3 cells assessed as accumulation of cells at G2/M phase at 1 nM measured after 8 days by PI staining based flow cytometry analysis (reference value: 12.4%); format: functional; conditions: time 8 day
PC-3 [28] = assay: Induction of cell cycle arrest in human PC-3 cells assessed as accumulation of cells at G2/M phase at 50 nM measured after 8 days by PI staining based flow cytometry analysis (reference value: 12.4%); format: functional; conditions: time 8 day
PC-3 [29] = assay: Induction of cell cycle arrest in human PC-3 cells assessed as accumulation of cells at G2/M phase at 1000 nM measured after 8 days by PI staining based flow cytometry analysis (reference value: 12.4%); format: functional; conditions: time 8 day
PC-3 [30] = assay: Upregulation of caspase-3 expression in human PC-3 cells at 1 to 50 nM measured after 4 to 8 days by Western blot analysis; format: functional, cell-based; conditions: dose 1-50 nM, time 4-8 day
PC-3 [31] = assay: Upregulation of CYP1A1 expression in human PC-3 cells at 1 to 50 nM measured after 4 to 8 days by Western blot analysis; format: functional, cell-based; conditions: dose 1-50 nM, time 4-8 day
PC-3 [32] = assay: Upregulation of BAX expression in human PC-3 cells at 1 to 50 nM measured after 6 days by Western blot analysis; format: functional, cell-based; conditions: dose 1-50 nM, time 6.0 day
PC-3 [33] = assay: Upregulation of BAX expression in human PC-3 cells at 1 to 50 nM measured after 8 days by Western blot analysis; format: functional, cell-based; conditions: dose 1-50 nM, time 8.0 day

Structure (SMILES): CC[C@H](C)[C@@H]([C@@H](CC(=O)N1CCC[C@H]1[C@H](OC)[C@@H](C)C(=O)N[C@@H](Cc1ccccc1)Cn1cc(C(=O)O)nn1)OC)N(C)C(=O)[C@@H](NC(=O)[C@H](C(C)C)N(C)C)C(C)C
- IC50 (PANC-1): 52 nM
- IC50 (MDA-MB-231): 93.9 nM
- IC50 (NCI-H1299): 137 nM
- IC50 (PC-3 [1]): 15.7 nM
- IC50 at 8 days [2]: 39.2 nM

Structure (SMILES): CC[C@H](C)[C@@H]([C@@H](CC(=O)N1CCC[C@H]1[C@H](OC)[C@@H](C)C(=O)N[C@@H](Cc1ccccc1)c1nc(CN)cs1)OC)N(C)C(=O)[C@@H](NC(=O)[C@H](C(C)C)N(C)C)C(C)C
- IC50 (PANC-1): 0.2 nM
- IC50 (MDA-MB-231): 36.2 nM
- IC50 (NCI-H1299): 3.1 nM
- IC50 (PC-3 [1]): 0.9 nM
- IC50 at 8 days [2]: 38.5 nM
- Activity (PC-3 [3]): 77.1%
- Activity (PC-3 [4]): 69.8%
- Activity (PC-3 [5]): 64.5%
- Activity (PC-3 [6]): 14.5%
- Activity (PC-3 [7]): 19.1%
- Activity (PC-3 [8]): 17.8%
- Activity (PC-3 [9]): 9.06%
- Activity (PC-3 [10]): 12%
- Activity (PC-3 [11]): 18.5%
- Activity (PC-3 [12]): 35.5%
- Activity (PC-3 [13]): 59.6%
- Activity (PC-3 [14]): 59.2%
- Activity (PC-3 [15]): 29.5%
- Activity (PC-3 [16]): 26.4%
- Activity (PC-3 [17]): 29.3%
- Activity (PC-3 [18]): 36.5%
- Activity (PC-3 [19]): 15.3%
- Activity (PC-3 [20]): 12.8%
- Activity (PC-3 [21]): 65.9%
- Activity (PC-3 [22]): 43.3%
- Activity (PC-3 [23]): 38.1%
- Activity (PC-3 [24]): 26.1%
- Activity (PC-3 [25]): 34.1%
- Activity (PC-3 [26]): 40.9%
- Activity (PC-3 [27]): 9.28%
- Activity (PC-3 [28]): 24%
- Activity (PC-3 [29]): 22.9%
- Activity (PC-3 [30]): Active
- Activity (PC-3 [31]): Active
- Activity (PC-3 [32]): Active
- Activity (PC-3 [33]): inactive

Structure (SMILES): CC[C@H](C)[C@@H]([C@@H](CC(=O)N1CCC[C@H]1[C@H](OC)[C@@H](C)C(=O)N[C@@H](Cc1ccccc1)Cn1cc(CO)nn1)OC)N(C)C(=O)[C@@H](NC(=O)[C@H](C(C)C)N(C)C)C(C)C
- IC50 (PANC-1): 4.7 nM
- IC50 (MDA-MB-231): 63.4 nM
- IC50 (NCI-H1299): 7.8 nM
- IC50 (PC-3 [1]): 10.9 nM
- IC50 at 8 days [2]: 51.5 nM

Structure (SMILES): CC[C@H](C)[C@@H]([C@@H](CC(=O)N1CCC[C@H]1[C@H](OC)[C@@H](C)C(=O)N[C@@H](Cc1ccccc1)Cn1cc(CNC)nn1)OC)N(C)C(=O)[C@@H](NC(=O)[C@H](C(C)C)N(C)C)C(C)C
- IC50 (PANC-1): 1.3 nM
- IC50 (MDA-MB-231): 19.8 nM
- IC50 (NCI-H1299): 4.7 nM
- IC50 (PC-3 [1]): 8.9 nM
- IC50 at 8 days [2]: 38.4 nM

Structure (SMILES): CC[C@H](C)[C@@H]([C@@H](CC(=O)N1CCC[C@H]1[C@H](OC)[C@@H](C)C(=O)N[C@@H](Cc1ccccc1)Cn1cc(CN)nn1)OC)N(C)C(=O)[C@@H](NC(=O)[C@H](C(C)C)N(C)C)C(C)C
- IC50 (PANC-1): 10.4 nM
- IC50 (MDA-MB-231): 94.6 nM
- IC50 (NCI-H1299): 18.7 nM
- IC50 (PC-3 [1]): 15.5 nM
- IC50 at 8 days [2]: 73.7 nM
